Source: patent publication US4877881A, “Process of preparing pyrazoles, isoxazoles and analogs thereof having activity as 5-lipoxygenase inhibitors” (Warner-Lambert Company, priority 1988, dated 1989)
pIC50: −log10 of the molar value.

What was measured:
cyclooxygenase = biological target: T1, cyclooxygenase (Rattus norvegicus, UniProt Q63921); assay: ARBC Whole Cell Cyclooxygenase Assay in RBL-1 cells (PGF2α RIA); format: cell-based; conditions: RBL-1 intact cell cyclooxygenase; A23187 5 μM
T1 construct: RBL-1 intact cell cyclooxygenase IC50 values; endogenous in cells; host or cells: RBL-1 rat basophilic leukemia cells (American Type Culture Collection)
T1 sequence (Q63921 27-602): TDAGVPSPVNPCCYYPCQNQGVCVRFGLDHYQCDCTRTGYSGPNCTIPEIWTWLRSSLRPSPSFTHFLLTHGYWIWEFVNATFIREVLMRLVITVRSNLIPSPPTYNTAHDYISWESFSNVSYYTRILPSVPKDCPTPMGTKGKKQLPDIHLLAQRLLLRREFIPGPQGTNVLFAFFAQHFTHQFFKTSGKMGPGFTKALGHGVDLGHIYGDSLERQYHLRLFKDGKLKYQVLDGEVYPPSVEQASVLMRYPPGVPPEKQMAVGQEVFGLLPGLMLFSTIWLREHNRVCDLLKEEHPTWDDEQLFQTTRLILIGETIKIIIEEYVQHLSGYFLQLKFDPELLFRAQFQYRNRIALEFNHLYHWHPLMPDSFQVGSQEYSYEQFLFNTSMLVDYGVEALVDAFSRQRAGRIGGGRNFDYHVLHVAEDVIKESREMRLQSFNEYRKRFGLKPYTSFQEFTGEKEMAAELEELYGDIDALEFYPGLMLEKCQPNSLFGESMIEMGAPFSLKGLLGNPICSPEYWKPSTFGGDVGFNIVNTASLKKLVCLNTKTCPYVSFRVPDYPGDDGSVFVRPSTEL
Protocol: (§1) ARBL/ARBC Whole Cell 5-Lipoxygenase and Cyclooxygenase Assays
(§2) The rat basophilic leukemia cell line (RBL-1) was obtained from the American Type Culture Collection (Rockville, Md.).
(§3) Radioimmuno assay (RIA) kits of LTB4 and PGF2α were obtained from Amersham (Arlington Heights, Ill.) and Seragen (Boston, Mass.) respectively.
(§4) All tissue culture media were obtained from GIBO (Gran Island, N.Y.).
(§5) RBL-1 cells were grown in culture (suspension) in Eagle's minimum essential medium supplemented with 12% fetal bovine serum and 1:100 antibiotic-antimycotic mixture at 37° C. in an incubator supplied with air-5% carbon dioxide. Cells were harvested by centrifugation. They were washed with cold phosphate buffered saline pH 7.4 (PBS; NaCl, 7.1 g; Na2 HOP4, 1.15 g; KH2 PO4, 0.2 g; and KCl, 0.2 g/L). […] Calcium ionophore A23187 (5 μM) was added and cells were incubated for seven minutes at 37° C. The reaction was stopped by chilling the tubes in ice for ten minutes. Cells were separated by centrifugation and the supernatant was stored at -20°. Aliquots (100 μl) were analyzed for LTB4 and PGF2α using radioimmuno assay kits as provided by the supplier.

5-lipoxygenase = biological target: T2, 5-lipoxygenase (Rattus norvegicus, UniProt P12527); assay: ARBL Whole Cell 5-Lipoxygenase Assay in RBL-1 cells (LTB4 RIA); format: cell-based; conditions: RBL-1 intact cell 5-lipoxygenase; A23187 5 μM
T2 construct: ARBL/ARBC Whole Cell 5-Lipoxygenase and Cyclooxygenase Assays; endogenous in cells; host or cells: RBL-1 rat basophilic leukemia cells (American Type Culture Collection)
T2 sequence (P12527 1-673): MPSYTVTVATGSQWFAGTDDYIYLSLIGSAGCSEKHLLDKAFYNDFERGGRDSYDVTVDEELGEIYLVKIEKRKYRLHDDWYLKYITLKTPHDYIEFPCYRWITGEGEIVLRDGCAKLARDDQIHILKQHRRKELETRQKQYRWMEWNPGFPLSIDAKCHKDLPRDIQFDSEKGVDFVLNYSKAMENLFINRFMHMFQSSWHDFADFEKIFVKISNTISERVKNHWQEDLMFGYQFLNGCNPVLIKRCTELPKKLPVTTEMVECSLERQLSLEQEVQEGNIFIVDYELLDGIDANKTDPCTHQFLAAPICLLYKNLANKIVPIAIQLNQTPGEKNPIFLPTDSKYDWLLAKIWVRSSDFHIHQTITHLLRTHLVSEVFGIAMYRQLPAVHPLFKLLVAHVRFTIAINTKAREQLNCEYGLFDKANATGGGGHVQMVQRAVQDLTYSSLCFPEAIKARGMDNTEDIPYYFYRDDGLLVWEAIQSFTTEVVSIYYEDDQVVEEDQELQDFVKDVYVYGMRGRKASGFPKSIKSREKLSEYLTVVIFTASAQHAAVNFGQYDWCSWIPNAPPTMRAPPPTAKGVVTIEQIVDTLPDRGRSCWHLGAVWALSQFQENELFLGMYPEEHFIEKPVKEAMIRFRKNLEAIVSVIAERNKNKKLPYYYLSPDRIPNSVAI
Protocol: as §1, §2, §3, §4, §5

SMILES | pIC50 (cyclooxygenase) | pIC50 (5-lipoxygenase)
COC(=O)C(=Cc1cc(C)c(O)c(C)c1)c1cc(C)no1 [Example 43, 5-[α-Carbomethoxy-β-(4'-hydroxy-3',5'-dimethylphenyl)ethenyl]-3-methylisoxazole] | 5.66 | 4.77
Cc1cc(C(=Cc2cc(C(C)(C)C)c(O)c(C(C)(C)C)c2)C(=O)O)on1 [Example 51, 5-[α-Carboxy-β-(4'-hydroxy-3',5'-bis(1,1-dimethylethyl)phenyl)ethenyl]-3-methylisoxazole] | 5.60 | 4.70
CCOC(=O)Cn1nc(C)cc1/C=C/c1cc(OC)c(O)c(OC)c1 [Example 10D, (E)-5-[β-(4'-Hydroxy-3',5'-dimethoxyphenyl)ethenyl]3-methyl-1H-pyrazole-1-acetic acid, ethyl ester] | < 4.52 | 6.52
COC(=O)Cn1nc(C)cc1C=Cc1ccc(O)c(OC)c1 [Example 10I, 5-[β-(4'-Hydroxy-3'-methoxyphenyl)ethenyl]-3-methyl-1H-pyrazole-1-acetic acid methyl ester] | < 4.60 | < 5.00
COc1cc(C=Cc2cc(C)[nH]n2)ccc1OC(C)=O [Example 37, 3-[β-(4'-Acetoxy-3'-methoxyphenyl)ethenyl]-5-methylpyrazole] |  | 5.46
COC(=O)C(=Cc1cc(Cl)c(O)c(Cl)c1)c1cc(C)no1 [Example 41, 5-[α-Carbomethoxy-β-(4'-hydroxy-3,5-dichlorophenyl)ethenyl]-3-methylisoxazole] | 5.30 | < 4.52
COc1cc(C=Cc2cc(C)nn2CC(=O)O)cc(OC)c1O [Example 10M, 5-[β-(4'-Hydroxy-3',5'-dimethoxyphenyl)ethenyl]-3-methyl-1H-pyrazole-1-acetic acid] | < 4.52 | < 4.52
COc1cc(C=Cc2cc(CCO)on2)ccc1O [Example 36A, 3-[β-(4'-Hydroxy-3'-methoxyphenyl)ethenyl]-5-(2'-hydroxyethyl)isoxazole] |  | 4.67
COC(=O)Cn1nc(C=Cc2cc(C(C)(C)C)c(O)c(C(C)(C)C)c2)cc1C [Example 10G-1, 3-[β-(4'-Hydroxy-3',5'-di-t-butylphenyl)ethenyl]-5-methyl-1H-pyrazole-1-acetic acid, methyl ester] | < 4.52 | 5.35
COC(=O)C(=Cc1cc(Br)c(O)c(Br)c1)c1cc(C)no1 [Example 44, 5-[α-Carbomethoxy-β-(4'-hydroxy-3',5'-dibromophenyl)ethenyl]-3-methylisoxazole] | 5.28 | 4.92
COC(=O)Cn1nc(C)cc1C=Cc1cc(C(C)(C)C)c(O)c(C(C)(C)C)c1 [Example 10G-2, 5-[β-(4'-hydroxy-3',5'-di-t-butylphenyl)ethenyl]-3-methyl-1H-pyrazole-1-acetic acid, methyl ester] | < 4.52 | 5.39
COC(=O)Cn1nc(C=Cc2ccc(O)c(OC)c2)cc1C [Example 10J, 3-[β-(4'-Hydroxy-3'-methoxyphenyl)ethenyl]-5-methyl-1H-pyrazole-1-acetic acid, methyl ester] | 4.52 | < 5.00
COc1cc(C=Cc2cc(C)n(CC(=O)O)n2)ccc1O [Example 10K, 3-[β-(4'-Hydroxy-3'-methoxyphenyl)ethenyl]-5-methyl-1H-pyrazole-1-acetic acid] |  | < 4.70
Cc1cc(C=Cc2cc(C(C)(C)C)c(O)c(C(C)(C)C)c2)nn1CC(=O)O [Example 10Q, 3-[β-(4'-Hydroxy-3',5'-di-t-butylphenyl)ethenyl]-5-methyl-1H-pyrazole-1-acetic acid] | < 4.52 | < 4.52
COc1cc(C=Cc2cc(C)n(CC(=O)O)n2)cc(OC)c1O [Example 10N, 3-[β-(4'-hydroxy-3',5'-dimethoxyphenyl)ethenyl]-5-methyl-1H-pyrazole-1-acetic acid] | < 4.52 | < 4.70
COc1cccc(C=Cc2cc(C)no2)c1O [Example 32F, 5-[β-(2'-Hydroxy-3'-methoxyphenyl)ethenyl]-3-methylisoxazole] | 4.52 | 4.92
Cc1cc(C=Cc2cc(Cl)cc(Cl)c2O)on1 [Example 32J, 5-[β-(2'-Hydroxy-3',5'-dichlorophenyl)ethenyl]-3-methylisoxazole] | < 4.52 | 5.33
COC(=O)C(=Cc1cc(OC)c(O)c(OC)c1)c1cc(C)no1 [Example 40, 5-[β-Carbomethoxy-β-(4'-hydroxy-3',5'-dimethoxyphenyl)ethenyl]-3-methylisoxazole] | < 4.60 | < 5.00
COc1cc(C=Cc2cc(C)nn2CC(=O)O)ccc1O [Example 10L, 5-[β-(4'-Hydroxy-3'-methoxyphenyl)ethenyl]-3-methyl-1H-pyrazole-1-acetic acid] |  | < 4.70
COc1cc(C=Cc2cc(C(F)(F)F)[nH]n2)ccc1O [Example 10A, 3-[β-(4'-Hydroxy-3'-methoxyphenyl)ethenyl]-5-trifluoromethylpyrazole] | 5.35 | 5.42
COC(=O)C(=Cc1cc(Br)c(O)c(OC)c1)c1cc(C)no1 [Example 46A, 5-[α-Carbomethoxy-β-(3'-methoxy-4'-hydroxy-5'-bromophenyl)ethenyl]-3-methylisoxazole] | 4.92 | < 4.52
COc1cc(C=Cc2cc(-c3ccccc3)no2)cc(OC)c1O [Example 32D, 5-[β(4'-Hydroxy-3',5'-dimethoxyphenyl)ethenyl]-3-phenylisoxazole] | 5.27 | > 6.00
COc1cc(C=Cc2cc(-c3ccccc3)no2)ccc1O [Example 32E, 5-[β-(4'-Hydroxy-3'-methoxyphenyl)ethenyl]-3-phenyl-isoxazole] | 5.55 | 5.35
Cc1cc(C=Cc2cc(C(C)(C)C)c(O)c(C(C)(C)C)c2)n(CC(=O)O)n1 [Example 10P, 5-[β-(4'-Hydroxy-3',5'-di-t-butylphenyl)ethenyl]-3-methyl-1H-pyrazole-1-acetic acid] | < 4.52 | 4.92
COC(=O)Cn1nc(C=Cc2cc(OC)c(O)c(OC)c2)cc1C [Example 10H, 3-[β-(4'-Hydroxy-3',5'-dimethoxyphenyl)ethenyl]-5-methyl-1H-pyrazole-1-acetic acid, methyl ester] | < 4.52 | 5.02
Cc1cc(C(=Cc2cc(C)c(O)c(C)c2)C(=O)O)on1 [Example 52, 5-[α-Carboxy-β-(4'-hydroxy-3',5'-dimethylphenyl)ethenyl]-3-methylisoxazole] | < 4.70 | < 4.70
